Measured values reported in patent publication US11040981B2, “Pyrrolotriazine compounds and methods of inhibiting TAM kinases” (Syros Pharmaceuticals, Inc., priority 2017, dated 2021).

Tests used:
[1] = target: T1, MERTK (Homo sapiens, UniProt Q12866); experiment: TR-FRET kinase activity assay, MERTK; format: biochemical; settings: for IC50: TR-FRET activity assay, ATP at Km, 60 minutes, read-out: Mer IC50
T1 sequence (Q12866 21-999): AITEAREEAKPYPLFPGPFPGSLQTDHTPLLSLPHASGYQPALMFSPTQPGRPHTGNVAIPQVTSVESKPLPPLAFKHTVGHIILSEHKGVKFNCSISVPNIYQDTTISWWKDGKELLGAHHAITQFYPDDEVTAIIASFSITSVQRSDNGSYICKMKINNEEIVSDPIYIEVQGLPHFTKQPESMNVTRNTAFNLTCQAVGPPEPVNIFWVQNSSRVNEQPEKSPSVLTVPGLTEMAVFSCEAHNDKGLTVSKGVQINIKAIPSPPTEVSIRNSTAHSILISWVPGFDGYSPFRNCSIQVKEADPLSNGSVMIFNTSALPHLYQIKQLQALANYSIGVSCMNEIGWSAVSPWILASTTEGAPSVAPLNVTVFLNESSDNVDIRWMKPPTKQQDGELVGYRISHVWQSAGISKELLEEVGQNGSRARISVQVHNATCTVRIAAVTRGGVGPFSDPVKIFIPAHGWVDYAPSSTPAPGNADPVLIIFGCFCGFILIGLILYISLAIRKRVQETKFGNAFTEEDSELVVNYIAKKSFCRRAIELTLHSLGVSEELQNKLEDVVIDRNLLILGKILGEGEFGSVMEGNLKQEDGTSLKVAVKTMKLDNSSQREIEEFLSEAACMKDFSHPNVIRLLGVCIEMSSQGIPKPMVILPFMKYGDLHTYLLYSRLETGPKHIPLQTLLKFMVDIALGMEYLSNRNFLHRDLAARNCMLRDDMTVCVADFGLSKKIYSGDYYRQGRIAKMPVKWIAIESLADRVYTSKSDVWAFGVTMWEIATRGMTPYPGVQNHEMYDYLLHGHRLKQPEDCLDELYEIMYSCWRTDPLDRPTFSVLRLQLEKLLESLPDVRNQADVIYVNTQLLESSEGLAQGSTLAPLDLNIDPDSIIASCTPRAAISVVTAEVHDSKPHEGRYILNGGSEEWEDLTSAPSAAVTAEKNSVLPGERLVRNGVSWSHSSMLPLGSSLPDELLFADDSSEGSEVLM
How it was run: (§1)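 Enzyme, fluorescent peptide substrate and compound were mixed, and the reaction was started with ATP at each kinase's Km, in 50 mM HEPES pH 7.5, 10 mM MgCl2, 1 mM EGTA, 0.01% Brij 35, 1 mM DTT at RT. After 60 minutes EDTA quench, Eu-labelled phospho-specific antibody was added for 30 minutes, and IC50 was derived from TR-FRET signal loss.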

[2] = target: T2, TYRO3 (Homo sapiens, UniProt Q06418); experiment: TR-FRET kinase activity assay, TYRO3; format: biochemical; settings: ATP at Km, 60 minutes
T2 sequence (Q06418 41-890): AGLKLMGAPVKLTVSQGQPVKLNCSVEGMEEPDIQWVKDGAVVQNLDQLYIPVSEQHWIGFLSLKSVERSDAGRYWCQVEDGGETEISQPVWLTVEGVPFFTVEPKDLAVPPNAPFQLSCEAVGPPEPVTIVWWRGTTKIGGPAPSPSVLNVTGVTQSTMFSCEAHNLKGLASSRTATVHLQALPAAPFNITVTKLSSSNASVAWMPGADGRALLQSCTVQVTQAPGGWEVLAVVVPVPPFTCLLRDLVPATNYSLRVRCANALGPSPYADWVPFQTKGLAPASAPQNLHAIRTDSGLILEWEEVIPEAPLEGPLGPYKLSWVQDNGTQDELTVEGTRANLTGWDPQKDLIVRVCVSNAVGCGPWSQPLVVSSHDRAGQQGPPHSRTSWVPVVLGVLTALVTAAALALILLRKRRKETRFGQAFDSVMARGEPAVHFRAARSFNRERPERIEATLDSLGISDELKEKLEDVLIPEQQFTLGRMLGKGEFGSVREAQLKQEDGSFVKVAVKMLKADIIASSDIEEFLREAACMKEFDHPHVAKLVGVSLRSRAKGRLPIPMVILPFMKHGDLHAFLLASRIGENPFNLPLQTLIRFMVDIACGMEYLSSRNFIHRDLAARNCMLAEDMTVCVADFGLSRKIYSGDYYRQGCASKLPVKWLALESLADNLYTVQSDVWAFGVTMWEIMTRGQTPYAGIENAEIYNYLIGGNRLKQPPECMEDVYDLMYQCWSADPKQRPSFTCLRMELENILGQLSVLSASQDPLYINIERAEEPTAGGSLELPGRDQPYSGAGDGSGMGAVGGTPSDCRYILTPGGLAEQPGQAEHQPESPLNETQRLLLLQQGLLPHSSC
How it was run: as §1

[3] = ratio calculated as FLT3 IC50/Mer IC50
[4] = ratio of Mer to FLT3: FLT3 IC50/Mer IC50

SMILES | IC50 [1] | FLT3/Mer ratio (FLT3 IC50/Mer IC50) [1, 3] | IC50 [2] | FLT3/Mer ratio (FLT3 IC50/Mer IC50) [1, 4]
COC[C@H](C)Nc1ncc2c(-c3conc3C)cc([C@H]3CC[C@H](O)CC3)n2n1 [Compound 508] | ≤ 100 nM | +++ (“+++” represents a ratio of >100) | ≤ 100 nM | 
C[C@@H](CC(F)(F)F)Nc1ncc2c(C3=C[C@@H]4CC[C@H](C3)N4)cc([C@H]3CC[C@H](O)CC3)n2n1 [Compound 499] | ≤ 100 nM | +++ (“+++” represents a ratio of >100) | ≤ 100 nM | 
CC[C@H](C)Nc1ncc2c(C3CCOCC3)cc([C@H]3CC[C@H](O)CC3)n2n1 [Compound 129, (trans)-4-(2-((S)-sec-butylamino)-5-(tetrahydro-2H-pyran-4-yl)pyrrolo[2,1-f][1,2,4]triazin-7-yl)cyclohexanol] | ≤ 100 nM |  | ≤ 100 nM | +++ (“+++” represents a ratio of >100)
COC[C@H](C)Nc1ncc2c(-c3cnn(C4COC4)c3)cc(-c3ccc(OC)cc3)n2n1 [Compound 502] | ≤ 100 nM | ++ (“++” represents a ratio of between 10 and 100) | ≤ 100 nM | 
COC[C@H](C)Nc1ncc2c(C3=C[C@H]4CC[C@@H](C3)N4)cc([C@H]3CC[C@H](O)CC3)n2n1 [Compound 467] | ≤ 100 nM | +++ (“+++” represents a ratio of >100) | ≤ 100 nM | 
COC[C@H](C)Nc1ncc2c(C3=C[C@@H]4CC[C@H](C3)N4C(C)=O)cc([C@H]3CC[C@H](O)CC3)n2n1 [Compound 462] | ≤ 100 nM | +++ (“+++” represents a ratio of >100) | ≤ 100 nM | 
C[C@H](CC(F)(F)F)Nc1ncc2c(C3=C[C@H]4CC[C@@H](C3)N4C(=O)OC(C)(C)C)cc([C@H]3CC[C@H](O)CC3)n2n1 [Compound 456] | ≤ 100 nM | +++ (“+++” represents a ratio of >100) | ≤ 100 nM | 
CC[C@H](C)Nc1ncc2c(C3=CCOCC3)cc([C@H]3CC[C@H](O)CC3)n2n1 [Compound 128] | ≤ 100 nM |  | ≤ 100 nM | ++ (“++” represents a ratio of between 10 and 100)
C[C@@H](CC(F)(F)F)Nc1ncc2c([C@H]3CC[C@@H](C(=O)N4CCOCC4)CC3)cc([C@H]3CC[C@H](O)CC3)n2n1 [Compound 446] | ≤ 100 nM | +++ (“+++” represents a ratio of >100) | ≤ 100 nM | 
CC(CC1COC1)Nc1ncc2c(-c3cnn(C4COC4)c3)cc([C@H]3CC[C@H](O)CC3)n2n1 (mixture of isomers) [Compound 447] | 1000 to 10000 nM | + (“+” represents a ratio of >2.0 and <10) | 1000 to 10000 nM | 
CNS(=O)(=O)c1ccc(-c2cc([C@H]3CC[C@H](O)CC3)n3nc(N[C@@H](C)COC(F)F)ncc23)cn1 [Compound 424] | ≤ 100 nM | +++ (“+++” represents a ratio of >100) | ≤ 100 nM | 
COC[C@H](C)Nc1ncc2c(CC#N)cc([C@H]3CC[C@H](O)CC3)n2n1 [Compound 497] | ≤ 100 nM | +++ (“+++” represents a ratio of >100) | ≤ 100 nM | 
COC[C@H](C)Nc1ncc2c(C3=C[C@@H]4CC[C@H](C3)N4CC(F)(F)F)cc([C@H]3CC[C@H](O)CC3)n2n1 [Compound 485] | ≤ 100 nM | +++ (“+++” represents a ratio of >100) | ≤ 100 nM | 
C[C@@H](COC(F)F)Nc1ncc2c(-c3cnn(CCC#N)c3)cc([C@H]3CC[C@H](O)CC3)n2n1 [Compound 437] | ≤ 100 nM | +++ (“+++” represents a ratio of >100) | ≤ 100 nM | 
COC[C@H](C)Nc1ncc2c(-c3cnn(C4COC4)c3)cc([C@H]3CC[C@@](C)(O)CC3)n2n1 (single isomer, unassigned) [Compound 453] | ≤ 100 nM | +++ (“+++” represents a ratio of >100) | ≤ 100 nM | 
COC[C@H](C)Nc1ncc2c(-c3ccnc(F)c3)cc([C@H]3CC[C@H](O)CC3)n2n1 [Compound 505] | ≤ 100 nM | +++ (“+++” represents a ratio of >100) | ≤ 100 nM | 
COC[C@H](C)Nc1ncc2c(-c3cnn(C[C@@H]4CC(=O)N(C)C4)c3)cc([C@H]3CC[C@H](O)CC3)n2n1 [Compound 473] | ≤ 100 nM | +++ (“+++” represents a ratio of >100) | ≤ 100 nM | 
CCCCC[C@H](C)Nc1ncc2c([C@H]3CC[C@@H](C(=O)N4CCN(C)CC4)CC3)cc([C@H]3CC[C@H](O)CC3)n2n1 [Compound 127] | ≤ 100 nM |  | ≤ 100 nM | +++ (“+++” represents a ratio of >100)
COC[C@H](C)Nc1ncc2c(-c3ccnc(Oc4cccnc4)c3)cc([C@H]3CC[C@H](O)CC3)n2n1 [Compound 490] | ≤ 100 nM | +++ (“+++” represents a ratio of >100) | ≤ 100 nM | 
COC[C@H](C)Nc1ncc2c([C@H]3CC[C@@H](C(=O)N4CCOCC4)CC3)cc([C@H]3CC[C@H](O)CC3)n2n1 [Compound 484] | ≤ 100 nM | +++ (“+++” represents a ratio of >100) | ≤ 100 nM | 
COC[C@H](C)Nc1ncc2c(-c3ccnc(N4CCOC5(COC5)C4)c3)cc([C@H]3CC[C@H](O)CC3)n2n1 [Compound 480] | ≤ 100 nM | +++ (“+++” represents a ratio of >100) | ≤ 100 nM | 
C[C@@H](COC(F)F)Nc1ncc2c(-c3cnn(CCS(C)(=O)=O)c3)cc([C@H]3CC[C@H](O)CC3)n2n1 [Compound 436] | ≤ 100 nM | +++ (“+++” represents a ratio of >100) | ≤ 100 nM | 
COC[C@H](C)Nc1ncc2c(-c3ccc(C(C)(C)C(=O)N4CCOCC4)s3)cc([C@H]3CC[C@H](O)CC3)n2n1 [Compound 460] | ≤ 100 nM | +++ (“+++” represents a ratio of >100) | ≤ 100 nM | 
COC[C@H](C)Nc1ncc2c(-c3cnn(C4COC4)c3)cc([C@H]3CC[C@](C)(O)CC3)n2n1 (single isomer, unassigned) [Compound 452] | ≤ 100 nM | +++ (“+++” represents a ratio of >100) | ≤ 100 nM | 
COC[C@H](C)Nc1ncc2c(-c3ccnc(N4CCN(C(=O)C5COC5)CC4)c3)cc([C@H]3CC[C@H](O)CC3)n2n1 [Compound 500] | ≤ 100 nM | +++ (“+++” represents a ratio of >100) | ≤ 100 nM | 
COC[C@H](C)Nc1ncc2c(-c3ccnc(N4CCOC4=O)c3)cc([C@H]3CC[C@H](O)CC3)n2n1 [Compound 438] | ≤ 100 nM | +++ (“+++” represents a ratio of >100) | ≤ 100 nM | 
COC[C@H](C)Nc1ncc2c(-c3ccc(-c4nn[nH]n4)cc3)cc([C@H]3CC[C@H](O)CC3)n2n1 [Compound 134] | ≤ 100 nM |  | ≤ 100 nM | +++ (“+++” represents a ratio of >100)
